Measurements published in patent US20060205688A1, “Method of modulating epithelial cell activity by modulating the functional levels of sphingosine kinase” (priority 2002, published 2006).
“Also recorded” adds a separate entry of the source. Where two headings read alike, the source gives them in different places.

Tests used:
Type in all cases: cell-based, human
[1] = system: PECAM-1; experiment: PECAM-1 phosphorylation (Western blot); details: data not shown
Description: SDS-polyacrylamide gel electrophoresis was performed as described (Pitson S M, Moretti P A, Zebol J R, Xia P, Gamble J R, Vadas M A et al. (2000) J Biol Chem; 275(43):33945-33950) on cell lysates using 12% acrylamide gels. Proteins were transferred to PVDF membranes, blocked in 5% low fat milk in PBS with 0.1% Tween20 for one hour, and incubated overnight at 4 C with M2 mouse anti-FLAG antibody (Sigma, St Louis, Mo.), rabbit polyclonal anti-phospho-Akt (Cell Signaling Technology), rabbit polyclonal anti-Akt (Cell Signaling Technology), anti-phosphotyrosine (Cell Signaling Technology), or for one hour at room temperature with mouse anti-cyclin D1 or cyclin E (Santa Cruz Biotechnology) or mouse monoclonal antibody directed to PECAM-1 (51-6F6) raised at The Hanson Institute, Adelaide, Australia. The membrane was incubated with horseradish peroxidase-conjugated anti-mouse IgG or anti-rabbit IgG (Pierce) and immunocomplexes were detected using enhanced chemiluminescence (Amersham Pharmacia Biotech).

[2] = system: PECAM-1; experiment: PECAM-1 expression (flow cytometry, Western blot); details: normal HUVEC
Description: SDS-polyacrylamide gel electrophoresis was performed as described (Pitson S M, Moretti P A, Zebol J R, Xia P, Gamble J R, Vadas M A et al. (2000) J Biol Chem; 275(43):33945-33950) on cell lysates using 12% acrylamide gels. […] The membrane was incubated with horseradish peroxidase-conjugated anti-mouse IgG or anti-rabbit IgG (Pierce) and immunocomplexes were detected using enhanced chemiluminescence (Amersham Pharmacia Biotech).
Flow cytometric analysis of cell surface expression of PECAM-1 and VE-Cadherin was performed as previously described (Xia P, Gamble J R, Rye K A, Wang L, Hii C S, Cockerill P et al. (1998) supra) using 10 µg/ml mouse monoclonal primary antibodies to PECAM-1 (51-6F6) or VE-Cadherin (55-7H1) generated in our laboratory (Gamble J R, Khew-Goodall Y, Vadas M A. (1993) J Immunol; 150(10):4494-4503). […] The median fluorescence intensity was determined using a Coulter Epics Profile XL flow cytometer. FAC S analysis of the cell surface expression of CD34 was done by incubating 1×10^6 cells with […] of anti-CD34, R-phycoerythrin (R-PE)-conjugated mouse anti-human mAb (BD Pharmingen, San Diego, Calif.) for 30 minutes at room temperature, and then determining the median fluorescence intensity.

[3] = system: VCAM-1; experiment: VCAM-1 cell surface expression (FACS)
Description: (§1) Flow cytometric analysis of cell surface expression of E-Selectin and VCAM-1 was performed as previously described (11) using 10 μg/ml mouse monoclonal primary antibodies to E-Selectin (49-1B11) or VCAM-1 (51-10C9) generated in our laboratory (Gamble J R, Khew-Goodall Y, Vadas M A. (1993) supra). Secondary antibodies used were anti-mouse fluorescein-isothiocyanate, or for GFP-expressing cells, goat anti-mouse IgG R-phycoerythrin conjugate (Southern Biotech Birmingham, Ala., USA). The median fluorescence intensity was determined using a Coulter Epics Profile XL flow cytometer.

[4] = system: E-Selectin; experiment: E Selectin cell surface expression (FACS)
Description: as §1

[5] = system: HUVEC; experiment: Cell survival in serum-free medium (MTS); parameters: effect of inhibitor on cell survival of control cells: dose or concentration left out as unconfirmed
Description: Endothelial cells were plated into gelatin coated 96 well microtitre trays at 3×10^3 cells per well in serum-free medium. MTS (Promega, WI, USA) was used to measure cell viability. Optical density at 490 nm was measured on Day 0, Day 1, Day 2, and Day 3.
Cell survival was measured in serum-free medium supplemented with ECGs and in non-tissue culture non-adhesive trays coated with 1% bovine serum albumin under serum free culture conditions.

[6] = 5 μM for four hours, SK and EV cells
[7] = pertussis toxin 50 ng/ml 18 hours, then TNFα 0.5 ng/ml four hours, control cells or SK cells
[8] = pertussis toxin 50 ng/ml, cells over-expressing SK or EV

CCCCCCCCCCCCC/C=C/[C@@H](O)[C@@H](N)COP(=O)(O)O [S1P]
PECAM-1 phosphorylation status after exogenous S1P [1]: had no effect
PECAM-1 expression after exogenous S1P [2]: did not induce PECAM-1 expression; also recorded: had no effect
VCAM-1 expression after exogenous SIP [3, 6]: up-regulation
E Selectin expression after exogenous SIP [4, 6]: up-regulation

COc1cccc(-c2cc(=O)c3ccccc3o2)c1N [PD98059]
effect of inhibitor on cell survival of control cells ([5]; EV cells, Day 2): significantly reduced cell survival

N#CC(=C(/N)Sc1ccccc1N)/C(C#N)=C(\N)Sc1ccccc1N [U0126]
effect of inhibitor on cell survival of control cells [5]: significantly reduced cell survival

pertussis toxin
effect of pretreatment on adhesion molecule response to exogenous SIP ([3]; SK and EV cells, adhesion molecule (VCAM-1 / E Selectin) not specified): inhibited
effect of pre-treatment on TNFα-induced VCAM-1 expression [3, 7]: did not alter
effect on basal or TNFα-induced VCAM-1 expression [3, 8]: did not inhibit
effect of pre-treatment on TNFα-induced E Selectin expression [4, 7]: did not alter
effect on basal or TNFα-induced E Selectin expression [4, 8]: did not inhibit
effect on SK-mediated cell survival ([5]; pertussis toxin 50 ng/ml, HUVEC over-expressing SK): not inhibited
